Measurements reported in paper PMC6094047 (Antiviral Research, 2018).
Where “and” joins values, the source holds several entries; their conditions need not be identical. Identical values can stand only once. Like-named read-outs stand apart in the source and are kept apart here.

Legend:
[1] = test system: A(H1N1)pdm09 virus neuraminidase (NA); conditions: cited from earlier work; for fold increases in IC50s compared to the mean IC50s: previously described A(H1N1)pdm09 virus with S110F AAS, ref Okomo-Adhiambo et al., 2014
[2] = test system: B/Victoria-lineage virus neuraminidase (NA); format: biochemical, influenza B/Victoria-lineage virus
[3] = test system: A(H3N2) virus neuraminidase (NA); format: biochemical, influenza A(H3N2) virus
[4] = test system: A(H1N1)pdm09 virus neuraminidase (NA); format: biochemical, influenza A(H1N1)pdm09 virus
[5] = A(H1N1)pdm09 NA H275Y, ref WHO-AVWG NAI substitution table

| Structure (SMILES) | fold increases in IC50s compared to the mean IC50s [1] | Fold change in IC50 [2] | Fold change in IC50 [3] | inhibition phenotype (NI/RI/HRI) [3] | inhibition phenotype associated with NA AAS (NI/RI/HRI) [1] | IC50 fold-change compared to reference median IC50 values [4] | inhibition phenotype associated with NA AAS (NI/RI/HRI) [1, 5] |
| --- | --- | --- | --- | --- | --- | --- | --- |
| CC(=O)N[C@H]1[C@H]([C@H](O)[C@H](O)CO)OC(C(=O)O)=C[C@@H]1N=C(N)N [Zanamivir] | 3–6 fold | 1.4 fold and 2.0 fold | 11 fold and 8.1 fold and 9.1 fold | RI (key: normal inhibition (NI) (type A viruses <10-fold; reduced inhibition (RI) (type A viruses 10- to 100-fold; highly reduced inhibition (HRI) (type A viruses >100-fold) |  |  |  |
| [H]/N=C(\N)N[C@H]1C=C(C(=O)O)O[C@@H]([C@H](OC)[C@H](O)CO)[C@@H]1NC(C)=O [Laninamivir] |  | 1.8 fold and 2.2 fold |  |  | HRI (key: normal inhibition (NI) (type A viruses <10-fold; reduced inhibition (RI) (type A viruses 10- to 100-fold; highly reduced inhibition (HRI) (type A viruses >100-fold) | 1.5–3.4 (8) fold and 2.9 fold |  |
| CCC(CC)[C@H](NC(C)=O)[C@@H]1[C@H](O)[C@@H](C(=O)O)C[C@H]1N=C(N)N [Peramivir] |  | 30 fold and 26 fold |  |  |  |  | HRI (highly reduced inhibition (HRI) (type A viruses >100-fold) |
| CCOC(=O)C1=C[C@@H](OC(CC)CC)[C@H](NC(C)=O)[C@@H](N)C1 [Oseltamivir] | 3–6 fold | 4.1 fold and 2.9 fold | 14 fold | RI (key: normal inhibition (NI) (type A viruses <10-fold; reduced inhibition (RI) (type A viruses 10- to 100-fold; highly reduced inhibition (HRI) (type A viruses >100-fold) | HRI (key: normal inhibition (NI) (type A viruses <10-fold; reduced inhibition (RI) (type A viruses 10- to 100-fold; highly reduced inhibition (HRI) (type A viruses >100-fold) |  | HRI (highly reduced inhibition (HRI) (type A viruses >100-fold) |
